What was measured:
Format in all cases: functional
Mus musculus [1] = assay: Antihyperglycemic activity was determined in obese (ob/ob) mice by po administration at a dose of 10 mg/kg
Mus musculus [2] = assay: Antihyperglycemic activity in obese mice(ob/ob) at 1 mg/kg peroral administration; conditions: route oral
Mus musculus [3] = assay: Antihyperglycemic activity in obese mice(ob/ob) at 3 mg/kg peroral administration; conditions: route oral
Mus musculus [4] = assay: In vivo decrease in insulin in obese mice(ob/ob) at 0.3 mg/kg/day peroral administration for 2 weeks; conditions: route oral
Mus musculus [5] = assay: In vivo decrease in glucose in obese mice(ob/ob) by 10 mg/kg/day peroral administration for 2 weeks; conditions: route oral
Mus musculus [6] = assay: In vivo decrease in triglyceride in obese mice(ob/ob) by 3 mg/kg/day peroral administration for 2 weeks; conditions: route oral
Mus musculus [7] = assay: In vivo decrease in glucose in obese mice(ob/ob) by 0.3 mg/kg/day peroral administration for 2 weeks; conditions: route oral
Mus musculus [8] = assay: In vivo decrease in glucose in obese mice(ob/ob) at 3 mg/kg/day peroral administration for 2 weeks; conditions: route oral
Mus musculus [9] = assay: In vivo decrease in glucose in obese mice(ob/ob) at 10 mg/kg/day peroral administration for 2 weeks; conditions: route oral
Mus musculus [10] = assay: In vivo decrease in glucose in obese mice(ob/ob) at 1 mg/kg/day peroral administration for 2 weeks; conditions: route oral
Mus musculus [11] = assay: In vivo decrease in insulin in obese mice(ob/ob) at 1 mg/kg/day peroral administration for 2 weeks; conditions: route oral
Mus musculus [12] = assay: In vivo decrease in insulin in obese mice(ob/ob) at 3 mg/kg/day peroral administration for 2 weeks; conditions: route oral
Mus musculus [13] = assay: In vivo decrease in insulin in obese mice(ob/ob) at 10 mg/kg/day peroral administration for 2 weeks; conditions: route oral
Mus musculus [14] = assay: In vivo decrease in glucose in obese mice(ob/ob) by 1 mg/kg/day peroral administration for 2 weeks; conditions: route oral
Mus musculus [15] = assay: In vivo decrease in triglyceride in obese mice(ob/ob) by 0.3 mg/kg/day peroral administration for 2 weeks; conditions: route oral

## COc1ccc(CC2SC(=O)NC2=O)cc1C(=O)NCCc1ccc(C(F)(F)F)cc1 (configuration not stated)
Mus musculus [1]
  Decrease in blood glucose: 3%

## COc1ccc(C(=O)NCc2ccc(C(F)(F)F)cc2)cc1CC1SC(=O)NC1=O (configuration not stated)
Mus musculus [1]
  Decrease in blood glucose: 3%

## CC(C)Oc1ccc(CC2SC(=O)NC2=O)cc1C(=O)NCc1ccc(C(F)(F)F)cc1 (configuration not stated)
Mus musculus [1]
  Decrease in blood glucose: 45%

## COc1ccc(CC2SC(=O)NC2=O)cc1C(=O)NCc1cc(C(F)(F)F)cc(C(F)(F)F)c1 (configuration not stated)
Mus musculus [1]
  Decrease in blood glucose: 30%

## COc1ccc(C2SC(=O)NC2=O)cc1C(=O)NCc1ccc(C(F)(F)F)cc1 (configuration not stated)
Mus musculus [2]
  Decrease in blood glucose: 27%
Mus musculus [1]
  Decrease in blood glucose: 48%
Mus musculus [3]
  Decrease in blood glucose: 36%

## COc1ccc(CC2SC(=O)NC2=O)cc1C(=O)NCc1ccc(C(C)(C)C)cc1 (configuration not stated)
Mus musculus [1]
  Decrease in blood glucose: 5%

## O=C1NC(=O)C(Cc2ccc(O)c(C(=O)NCc3ccc(C(F)(F)F)cc3)c2)S1 (configuration not stated)
Mus musculus [2]
  Decrease in blood glucose: 7%
Mus musculus [1]
  Decrease in blood glucose: 34%
Mus musculus [3]
  Decrease in blood glucose: 12%

## COc1ccc(CC2SC(=O)NC2=O)cc1C(=O)NCc1ccc(N(C)C)cc1 (configuration not stated)
Mus musculus [1]
  Decrease in blood glucose: 12%

## CCOc1ccc(CC2SC(=O)NC2=O)cc1C(=O)NCc1ccc(C(F)(F)F)cc1 (configuration not stated)
Mus musculus [1]
  Decrease in blood glucose: 34%

## Cc1ccc(CC2SC(=O)NC2=O)cc1C(=O)NCc1ccc(C(F)(F)F)cc1 (configuration not stated)
Mus musculus [1]
  Decrease in blood glucose: 16%

## COc1ccc(CCC2SC(=O)NC2=O)cc1C(=O)NCc1ccc(C(F)(F)F)cc1 (configuration not stated)
Mus musculus [2]
  Decrease in blood glucose: 15%
Mus musculus [1]
  Decrease in blood glucose: 43%
Mus musculus [3]
  Decrease in blood glucose: 20%

## COc1ccc(CC2SC(=O)NC2=O)cc1C(=O)NCc1ccccc1C(F)(F)F (configuration not stated)
Mus musculus [1]
  Decrease in blood glucose: 4%

## COc1ccc(CC2SC(=O)NC2=O)cc1C(=O)NCc1ccc(F)cc1 (configuration not stated)
Mus musculus [1]
  Decrease in blood glucose: 28%

## COc1ccc(CC2SC(=O)NC2=O)cc1C(=O)NCc1ccccc1 (configuration not stated)
Mus musculus [2]
  Decrease in blood glucose: 19%
Mus musculus [1]
  Decrease in blood glucose: 37%
Mus musculus [3]
  Decrease in blood glucose: 31%

## COc1c(CC2SC(=O)NC2=O)cccc1C(=O)NCc1ccc(C(F)(F)F)cc1 (configuration not stated)
Mus musculus [1]
  Decrease in blood glucose: 0%

## COc1ccc(CC2SC(=O)NC2=O)cc1C(=O)NCc1ccc(C(F)(F)F)cc1 (configuration not stated)
Mus musculus [4]
  Rate of decrease: 55%
Mus musculus [5]
  Rate of decrease: 130%
Mus musculus [6]
  Rate of decrease: 122%
Mus musculus [7]
  Rate of decrease: 77%
Mus musculus [2]
  Decrease in blood glucose: 35%
Mus musculus [8]
  Rate of decrease: 95%
Mus musculus [9]
  Rate of decrease: 100%
Mus musculus [1]
  Decrease in blood glucose: 58%
Mus musculus [10]
  Rate of decrease: 78%
Mus musculus [11]
  Rate of decrease: 59%
Mus musculus [3]
  Decrease in blood glucose: 53%
Mus musculus [12]
  Rate of decrease: 83%
Mus musculus [13]
  Rate of decrease: 87%
Mus musculus [14]
  Rate of decrease: 80%
Mus musculus [15]
  Rate of decrease: 67%

## COc1ccc(CCCC2SC(=O)NC2=O)cc1C(=O)NCc1ccc(C(F)(F)F)cc1 (configuration not stated)
Mus musculus [2]
  Decrease in blood glucose: 10%
Mus musculus [1]
  Decrease in blood glucose: 39%
Mus musculus [3]
  Decrease in blood glucose: 29%

## COc1ccc(CC2SC(=O)NC2=O)cc1C(=O)NCc1ccc(OC(F)(F)F)cc1 (configuration not stated)
Mus musculus [1]
  Decrease in blood glucose: 34%

## O=C1NC(=O)C(Cc2ccc(F)c(C(=O)NCc3ccc(C(F)(F)F)cc3)c2)S1 (configuration not stated)
Mus musculus [1]
  Decrease in blood glucose: 50%

## COc1ccc(CC2SC(=O)NC2=O)cc1C(=O)NCc1cccc(C(F)(F)F)c1 (configuration not stated)
Mus musculus [1]
  Decrease in blood glucose: 41%

## COc1ccc(CNC(=O)c2cc(CC3SC(=O)NC3=O)ccc2OC)cc1OC (configuration not stated)
Mus musculus [1]
  Decrease in blood glucose: 30%

## COc1ccc(CC2SC(=O)NC2=O)cc1C(=O)Nc1ccc(C(C)(C)C)cc1 (configuration not stated)
Mus musculus [1]
  Decrease in blood glucose: 17%

## COc1ccc(CNC(=O)c2cc(CC3SC(=O)NC3=O)ccc2OC)cc1 (configuration not stated)
Mus musculus [1]
  Decrease in blood glucose: 21%

## COc1ccc(CC2SC(=O)NC2=O)cc1C(=O)NCc1ccc(C)cc1 (configuration not stated)
Mus musculus [1]
  Decrease in blood glucose: 30%

## CCN(Cc1ccc(C(F)(F)F)cc1)C(=O)c1cc(CC2SC(=O)NC2=O)ccc1OC (configuration not stated)
Mus musculus [1]
  Decrease in blood glucose: 31%

## CCc1ccc(CCOc2ccc(CC3SC(=O)NC3=O)cc2)nc1 (configuration not stated) [PIOGLITAZONE]
Mus musculus [5]
  Rate of decrease: 99%
Mus musculus [6]
  Rate of decrease: 85%
Mus musculus [8]
  Rate of decrease: 64%
Mus musculus [9]
  Rate of decrease: 75%
Mus musculus [1]
  Decrease in blood glucose: 14%
Mus musculus [12]
  Rate of decrease: 43%
Mus musculus [13]
  Rate of decrease: 41%

## Cc1c(C)c2c(c(C)c1O)CCC(C)(COc1ccc(CC3SC(=O)NC3=O)cc1)O2 (configuration not stated) [TROGLITAZONE]
Mus musculus [1]
  Decrease in blood glucose: 9%
